# Reference: publication PMC5107951 (Scientific Reports, 2016)
# Where a SMILES comes first, the peptide text is derived from it. Bridges are numbered along the chain shown (N, C = ends).
# Columns and labels:
# [1] = target: α7 nAChR (Rattus norvegicus, UniProt Q05941); test: cell-based
# [2] = target: α7 nAChR (Homo sapiens, UniProt P36544); test: cell-based; assay type: binding
# Sequence of α7 nAChR (Homo sapiens, UniProt P36544) (P36544 23-502 limits assumed): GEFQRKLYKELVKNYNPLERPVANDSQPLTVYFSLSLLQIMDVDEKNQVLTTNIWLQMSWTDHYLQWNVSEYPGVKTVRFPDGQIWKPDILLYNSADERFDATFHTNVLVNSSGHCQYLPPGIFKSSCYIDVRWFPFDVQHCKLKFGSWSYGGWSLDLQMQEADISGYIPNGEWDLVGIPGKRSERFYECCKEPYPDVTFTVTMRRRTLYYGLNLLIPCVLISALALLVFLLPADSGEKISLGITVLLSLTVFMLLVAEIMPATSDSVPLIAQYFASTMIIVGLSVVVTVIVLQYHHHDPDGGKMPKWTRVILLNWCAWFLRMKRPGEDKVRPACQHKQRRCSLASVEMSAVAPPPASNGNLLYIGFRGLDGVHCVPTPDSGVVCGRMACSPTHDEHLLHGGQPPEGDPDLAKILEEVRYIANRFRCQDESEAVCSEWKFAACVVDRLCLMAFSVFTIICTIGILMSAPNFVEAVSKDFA
# Sequence of α7 nAChR (Rattus norvegicus, UniProt Q05941) (Q05941 23-502 limits assumed): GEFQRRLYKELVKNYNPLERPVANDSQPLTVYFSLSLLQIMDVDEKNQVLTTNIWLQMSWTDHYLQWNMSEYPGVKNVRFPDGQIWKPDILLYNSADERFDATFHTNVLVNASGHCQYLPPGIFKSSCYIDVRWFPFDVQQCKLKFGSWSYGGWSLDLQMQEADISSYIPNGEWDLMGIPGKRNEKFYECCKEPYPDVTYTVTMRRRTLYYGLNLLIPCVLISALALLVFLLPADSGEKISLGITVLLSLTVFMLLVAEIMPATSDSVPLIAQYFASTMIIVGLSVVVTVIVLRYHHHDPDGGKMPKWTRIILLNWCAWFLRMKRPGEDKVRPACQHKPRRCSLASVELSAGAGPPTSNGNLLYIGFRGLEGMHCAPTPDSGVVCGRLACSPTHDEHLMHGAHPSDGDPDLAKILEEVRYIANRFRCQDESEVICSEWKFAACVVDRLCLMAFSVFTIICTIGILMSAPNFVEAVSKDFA
SMILES,IC50 [1] [nM],"displacement of [125I]-PnIA[R9, L10] by non-radioactive peptide [2] [%]",IC50 [2] [nM]
"CC(C)C[C@@H]1NC(=O)[C@H](CCCNC(=N)N)NC(=O)[C@@H]2CSSC[C@H](NC(=O)CN)C(=O)N[C@@H](CSSC[C@@H](C(N)=O)NC(=O)[C@H](Cc3ccc(O)cc3)NC(=O)[C@H](CCCNC(=N)N)NC(=O)[C@@H]3CCCN3C(=O)[C@H](CC(N)=O)NC(=O)[C@H](CC(N)=O)NC1=O)C(=O)N[C@@H](CO)C(=O)N[C@@H](CCCNC(=N)N)C(=O)N1CCC[C@H]1C(=O)N1CCC[C@H]1C(=O)N2 [PnIA[R5, R9, L10, R14]] (H-GCCSRPPCRLNNPRYC-NH2; disulfide 2-8, 3-16)",17 ± 2,–,–
"CC(C)C[C@@H]1NC(=O)[C@H](CCCNC(=N)N)NC(=O)[C@@H]2CSSC[C@H](NC(=O)CN)C(=O)N[C@@H](CSSC[C@@H](C(N)=O)NC(=O)[C@H](Cc3ccc(O)cc3)NC(=O)[C@H](CC(=O)O)NC(=O)[C@@H]3CCCN3C(=O)[C@H](CC(N)=O)NC(=O)[C@H](CC(N)=O)NC1=O)C(=O)N[C@@H](CO)C(=O)N[C@@H](CC(C)C)C(=O)N1CCC[C@H]1C(=O)N1CCC[C@H]1C(=O)N2 [PnIA[R9, L10]] (H-GCCSLPPCRLNNPDYC-NH2; disulfide 2-8, 3-16)",27 ± 11,100,–
"CC(C)C[C@@H]1NC(=O)[C@H](CO)NC(=O)[C@@H]2CSSC[C@@H](C(N)=O)NC(=O)[C@H](Cc3ccc(O)cc3)NC(=O)[C@H](CC(=O)O)NC(=O)[C@@H]3CCCN3C(=O)[C@H](CC(N)=O)NC(=O)[C@H](CC(N)=O)NC(=O)[C@H](C)NC(=O)[C@H](CCCNC(=N)N)NC(=O)[C@H](CSSC[C@H](NC(=O)CN)C(=O)N2)NC(=O)[C@@H]2CCCN2C(=O)[C@@H]2CCCN2C1=O [PnIA[R9]] (H-GCCSLPPCRANNPDYC-NH2; disulfide 2-8, 3-16)",27 ± 10,–,1490
